Test results published in patent US20250154109A1, “SODIUM CHANNEL BLOCKING COMPOUNDS, DERIVATIVES THEREOF, AND METHODS OF THEIR USE” (LATIGO BIOTHERAPEUTICS, INC, priority 2022, published 2025).
pIC50: −log10 of the molar value.

molecular target: human Nav1.8 (Homo sapiens, UniProt Q9Y5Y9); test: Sophion Qpatch II assay (automated patch clamp); type: cell-based; details: resting state block (TP1 measurement), human Nav1.8 HEK293 cells, read-out: P1 IC50
Experimental: Compounds were tested on recombinant human Nav1.8/01 stably transfected HEK293 (Eurofins, CYL3025, St. Charles, MO) cells using the Qpatch II system (Sophion Bioscience A/S, Ballerup—Denmark), an automated patch clamp device. Cells were cultured at 37° C./5% CO2 in DMEM/F-12 supplemented with 10% fetal bovine serum, lx Non-Essential Amino Acids, and selection antibiotics (0.625 μg/mL Puromycin, 400 μg/mL Geneticin, and 100 μg/mL Hygromycin). One or two days prior to recording, cells were moved to a lower temperature 30° C./5% CO2 incubator to increase surface expression of the channels. On the day of the recordings, cells in culture dishes were washed twice with Ca^2+—Mg^2+ free DPBS and treated with Detachin (Genlantis, San Diego) for 3 minutes and then resuspended in Serum Free Medium (EX-CELL® ACF CHO Medium for Cell Culture (Sigma-Aldrich) supplemented with 0.04 mg/mL soybean trypsin Inhibitor and 25 mM HEPES (all components supplied by Sigma-Aldrich, St. Louis, MO) and allowed to recover for a minimum of 20 minutes in the onboard Qstirrer. All experiments were performed at ambient temperature. Intracellular solution contained (mM): CsCl, 50; CsF, 90; MgCl2, 2; EGTA, 5; HEPES, 10; pH adjusted to 7.2 with CsOH. Extracellular solution contained (mM): NaCl, 137; KCl, 4; CaCl2), 3.8; MgCl2, 1; HEPES, 10; Glucose, 10; pH adjusted to 7.4 with NaOH. 500 nM tetrodotoxin (TTX) was added to the extracellular solution to block endogenous TTX-sensitive sodium currents.
Compounds were tested in an interleaved manner across two cohorts of wells to develop an aggregate 8-point concentration response curve. Final concentrations include 0.5% DMSO and 0.03% pluronic Acid. The concentration range spanned a range from 0.01-300 nM. Compounds were diluted 1:10 with extracellular solution within their respective cohort. (R)-2-(4-fluoro-2-methylphenoxy)-N-(3-(S-methylsulfonimidoyl)phenyl)-5-(trifluoromethyl)nicotinamide served as a positive control while DMSO (0.5% by volume) served as a vehicle control to ascertain assay performance.
Whole cell patch clamp recordings were conducted according to Sophion standard procedure for Qpatch II®. Cells were held at a holding potential of −120 mV. A depolarizing step to 10 mV for 30 ms was applied (TP1 measurement), followed by a hyperpolarization step to −100 mV for 20 ms. Due to instability observed at long depolarized potentials, there were no second TP2 measurements attempted. Inter-sweep interval was 15 sec. Following establishment of the whole-cell configuration in extracellular solution, cells were washed twice in extracellular solution containing 0.5% DMSO and 0.03% pluronic acid to stabilize the baseline current. Compounds were then applied by the Qpatch II system into each well in an ascending manner within cohort and the current was recorded for five minutes for each concentration. Percent of current remaining was determined by taking the average of the last 5 sweeps within each concentration and normalizing to the latest pre-compound saline period. The potency of the compounds was assessed on resting state block (TP1 measurement) only to obtain IC50 values. Wells whose initial sodium current magnitude were below 2 nA or whole cell resistance fell below 100 MQ were excluded from analysis.
Examples 220 to 224, Examples 237 to 257 and Example 259 are assayed using Sophion Qpatch II assay described above.

Sequence of human Nav1.8 (Q9Y5Y9 whole entry): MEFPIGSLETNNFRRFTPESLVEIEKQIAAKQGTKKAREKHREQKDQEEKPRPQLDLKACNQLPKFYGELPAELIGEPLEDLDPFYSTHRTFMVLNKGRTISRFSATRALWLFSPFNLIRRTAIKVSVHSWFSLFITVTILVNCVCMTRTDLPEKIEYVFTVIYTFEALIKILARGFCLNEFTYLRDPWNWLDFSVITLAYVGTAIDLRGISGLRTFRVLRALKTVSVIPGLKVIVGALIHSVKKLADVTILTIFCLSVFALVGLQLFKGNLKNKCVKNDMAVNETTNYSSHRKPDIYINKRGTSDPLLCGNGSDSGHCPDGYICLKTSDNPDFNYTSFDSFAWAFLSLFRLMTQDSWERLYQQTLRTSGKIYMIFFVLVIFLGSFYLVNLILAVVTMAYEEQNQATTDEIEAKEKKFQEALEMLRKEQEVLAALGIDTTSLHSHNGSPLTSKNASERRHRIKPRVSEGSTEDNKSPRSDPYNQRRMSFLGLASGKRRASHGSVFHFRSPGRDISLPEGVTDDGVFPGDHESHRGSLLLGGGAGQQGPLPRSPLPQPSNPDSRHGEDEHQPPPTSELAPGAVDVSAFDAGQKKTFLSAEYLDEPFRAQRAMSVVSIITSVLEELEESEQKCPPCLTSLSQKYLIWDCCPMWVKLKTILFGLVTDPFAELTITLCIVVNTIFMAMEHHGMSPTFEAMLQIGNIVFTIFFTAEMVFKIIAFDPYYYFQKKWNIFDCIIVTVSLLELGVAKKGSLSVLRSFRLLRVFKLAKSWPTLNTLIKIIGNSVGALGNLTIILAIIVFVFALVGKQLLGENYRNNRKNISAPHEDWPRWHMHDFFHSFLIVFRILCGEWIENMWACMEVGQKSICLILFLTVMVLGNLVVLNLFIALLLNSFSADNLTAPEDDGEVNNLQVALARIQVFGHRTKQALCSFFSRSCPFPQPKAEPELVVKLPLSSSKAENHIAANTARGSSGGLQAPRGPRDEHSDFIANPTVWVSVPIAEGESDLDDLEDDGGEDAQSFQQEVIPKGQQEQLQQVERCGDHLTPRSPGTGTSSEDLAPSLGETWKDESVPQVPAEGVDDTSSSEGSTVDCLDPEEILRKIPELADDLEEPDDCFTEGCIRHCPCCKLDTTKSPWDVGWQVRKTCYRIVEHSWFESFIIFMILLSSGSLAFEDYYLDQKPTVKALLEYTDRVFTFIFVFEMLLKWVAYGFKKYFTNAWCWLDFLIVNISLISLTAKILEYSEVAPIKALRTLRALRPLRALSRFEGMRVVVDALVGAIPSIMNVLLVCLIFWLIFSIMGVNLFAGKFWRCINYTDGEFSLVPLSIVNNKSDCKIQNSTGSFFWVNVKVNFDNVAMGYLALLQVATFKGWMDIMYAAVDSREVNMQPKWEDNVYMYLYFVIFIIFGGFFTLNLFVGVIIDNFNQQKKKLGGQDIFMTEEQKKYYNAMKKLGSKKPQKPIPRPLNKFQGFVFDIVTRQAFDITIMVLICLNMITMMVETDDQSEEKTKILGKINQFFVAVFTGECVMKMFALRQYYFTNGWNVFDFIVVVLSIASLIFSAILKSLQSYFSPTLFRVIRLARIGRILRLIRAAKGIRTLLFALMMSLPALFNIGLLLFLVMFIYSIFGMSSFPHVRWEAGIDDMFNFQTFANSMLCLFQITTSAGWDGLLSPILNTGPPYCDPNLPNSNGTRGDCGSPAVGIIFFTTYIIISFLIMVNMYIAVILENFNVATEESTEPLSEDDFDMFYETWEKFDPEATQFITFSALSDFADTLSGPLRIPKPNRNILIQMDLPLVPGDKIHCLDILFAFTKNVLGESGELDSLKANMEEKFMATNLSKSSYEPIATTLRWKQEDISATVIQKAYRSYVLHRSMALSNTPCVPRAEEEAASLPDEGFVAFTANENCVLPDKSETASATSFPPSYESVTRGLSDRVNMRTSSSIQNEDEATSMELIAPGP

C[S@@](=N)(=O)c1cc(NC(=O)c2cc(Cl)c(C(F)(F)F)cc2N2CCC(F)(F)CC2)ccc1F [Example 254, (R)-5-chloro-2-(4,4-difluoropiperidin-1-yl)-N-(4-fluoro-3-(S-methylsulfonimidoyl)phenyl)-4-(trifluoromethyl)benzamide] and C[S@](=N)(=O)c1cccc(NC(=O)c2cc(Cl)c(C(F)(F)F)cc2N2CCC(F)(F)CC2)c1 [Example 255, (S)-5-chloro-2-(4,4-difluoropiperidin-1-yl)-N-(3-(S-methylsulfonimidoyl)phenyl)-4-(trifluoromethyl)benzamide] fall in the same range of pIC50: 7.30 to 8.30 for the first, 7.30 to 8.30 for the second.

Cc1c(C(=O)Nc2ccnc([S@](C)(=N)=O)c2)c(N2CCCC(F)(F)CC2)cc(C2CC2)c1C(F)(F)F [Example 250, (R)-4-cyclopropyl-6-(4,4-difluoroazepan-1-yl)-2-methyl-N-(2-(S-methylsulfonimidoyl)pyridin-4-yl)-3-(trifluoromethyl)benzamide] and Cc1c(C(=O)Nc2ccnc([S@@](C)(=N)=O)c2)c(N2CCCC(F)(F)CC2)nc(C2CC2)c1C(F)(F)F [Example 221, (S)-6-cyclopropyl-2-(4,4-difluoroazepan-1-yl)-4-methyl-N-(2-(S-methylsulfonimidoyl)pyridin-4-yl)-5-(trifluoromethyl)nicotinamide] cannot be ordered by pIC50: at least 8.30 for the first, 7.30 to 8.30 for the second.

Cc1c(C(F)(F)F)cnc(N2CCC(F)(F)CC2)c1C(=O)Nc1cccc([S@](C)(=N)=O)c1 [Example 241, (R)-2-(4,4-difluoropiperidin-1-yl)-4-methyl-N-(3-(S-methylsulfonimidoyl)phenyl)-5-(trifluoromethyl)nicotinamide] and Cc1c(C(F)(F)F)cnc(N2CCC(C(F)(F)F)CC2)c1C(=O)Nc1cccc([S@](C)(=N)=O)c1 [Example 242, (R)-4-methyl-N-(3-(S-methylsulfonimidoyl)phenyl)-5-(trifluoromethyl)-2-(4-(trifluoromethyl)piperidin-1-yl)nicotinamide] fall in the same range of pIC50: 7.30 to 8.30 for the first, 7.30 to 8.30 for the second.

First: C[S@](=N)(=O)c1cc(NC(=O)c2cc(Cl)c(C(F)(F)F)cc2N2CCC(F)(F)CC2)ccn1 [Example 247, (S)-5-chloro-2-(4,4-difluoropiperidin-1-yl)-N-(2-(S-methylsulfonimidoyl)pyridin-4-yl)-4-(trifluoromethyl)benzamide]
Second: C[S@@](=N)(=O)c1cc(NC(=O)c2cc(Cl)c(C(F)(F)F)cc2N2CCC(F)(F)CC2)ccn1 [Example 248, (R)-5-chloro-2-(4,4-difluoropiperidin-1-yl)-N-(2-(S-methylsulfonimidoyl)pyridin-4-yl)-4-(trifluoromethyl)benzamide]
The pIC50 of the first is lower: 6.70 to 7.00 for the first, 7.00 to 7.30 for the second. The second is the more potent here.

Cc1c(C(=O)Nc2cccc([S@](C)(=N)=O)c2)c(N2CCCC(F)(F)CC2)nc(C2CC2)c1C(F)(F)F [Example 224, (R)-6-cyclopropyl-2-(4,4-difluoroazepan-1-yl)-4-methyl-N-(3-(S-methylsulfonimidoyl)phenyl)-5-(trifluoromethyl)nicotinamide] and Cc1c(C(=O)Nc2cccc([S@@](C)(=N)=O)c2)c(N2CCCC(F)(F)CC2)nc(C2CC2)c1C(F)(F)F [Example 223, (S)-6-cyclopropyl-2-(4,4-difluoroazepan-1-yl)-4-methyl-N-(3-(S-methylsulfonimidoyl)phenyl)-5-(trifluoromethyl)nicotinamide] cannot be ordered by pIC50: 7.30 to 8.30 for the first, at least 8.30 for the second.

Cc1c(C(F)(F)F)cnc(N2CCCC(F)(F)CC2)c1C(=O)N[C@H]1C[C@H](C(N)=O)C1 [Example 257, N-((trans)-3-carbamoylcyclobutyl)-2-(4,4-difluoroazepan-1-yl)-4-methyl-5-(trifluoromethyl)nicotinamide] and Cc1c(C(F)(F)F)cnc(N2CCCC(F)(F)CC2)c1C(=O)N[C@H]1C[C@@H](C(N)=O)C1 [Example 259, N-((cis)-3-carbamoylcyclobutyl)-2-(4,4-difluoroazepan-1-yl)-4-methyl-5-(trifluoromethyl)nicotinamide] fall in the same range of pIC50: 7.00 to 7.30 for the first, 7.00 to 7.30 for the second.

First: C[S@](=N)(=O)c1cc(NC(=O)c2cc(Cl)c(C(F)(F)F)cc2N2CCC(C(F)(F)F)CC2)ccc1F [Example 246, (S)-5-chloro-N-(4-fluoro-3-(S-methylsulfonimidoyl)phenyl)-4-(trifluoromethyl)-2-(4-(trifluoromethyl)piperidin-1-yl)benzamide]
Second: C[S@@](=N)(=O)c1cc(NC(=O)c2cc(Cl)c(C(F)(F)F)cc2N2CCC(C(F)(F)F)CC2)ccc1F [Example 245, (R)-5-chloro-N-(4-fluoro-3-(S-methylsulfonimidoyl)phenyl)-4-(trifluoromethyl)-2-(4-(trifluoromethyl)piperidin-1-yl)benzamide]
The pIC50 of the first is lower: 7.00 to 7.30 for the first, 7.30 to 8.30 for the second.

First: Cc1c(C(F)(F)F)cnc(N2CCO[C@@H](C(F)(F)F)C2)c1C(=O)Nc1cccc([S@](C)(=N)=O)c1 [Example 238, 4-methyl-N-(3-((R)—S-methylsulfonimidoyl)phenyl)-5-(trifluoromethyl)-2-((R)-2-(trifluoromethyl)morpholino)nicotinamide]
Second: Cc1c(C(F)(F)F)cnc(N2CCO[C@H](C(F)(F)F)C2)c1C(=O)Nc1cccc([S@](C)(=N)=O)c1 [Example 240, 4-methyl-N-(3-((R)—S-methylsulfonimidoyl)phenyl)-5-(trifluoromethyl)-2-((S)-2-(trifluoromethyl)morpholino)nicotinamide]
The pIC50 of the first is lower: under 6.70 for the first, 7.30 to 8.30 for the second.

Cc1c(C(F)(F)F)cnc(N2CCO[C@H](C(F)(F)F)C2)c1C(=O)Nc1ccnc([S@](C)(=N)=O)c1 [Example 237, 4-methyl-N-(2-((R)—S-methylsulfonimidoyl)pyridin-4-yl)-5-(trifluoromethyl)-2-((S)-2-(trifluoromethyl)morpholino)nicotinamide] and C[S@@](=N)(=O)c1cc(NC(=O)c2cc(Cl)c(C(F)(F)F)cc2N2CCC(C(F)(F)F)CC2)ccn1 [Example 243, (R)-5-chloro-N-(2-(S-methylsulfonimidoyl)pyridin-4-yl)-4-(trifluoromethyl)-2-(4-(trifluoromethyl)piperidin-1-yl)benzamide] fall in the same range of pIC50: 7.00 to 7.30 for the first, 7.00 to 7.30 for the second.

C[S@](=N)(=O)c1cccc(NC(=O)c2cc(Cl)c(C(F)(F)F)cc2N2CCC(C(F)(F)F)CC2)c1 [Example 251, (S)-5-chloro-N-(3-(S-methylsulfonimidoyl)phenyl)-4-(trifluoromethyl)-2-(4-(trifluoromethyl)piperidin-1-yl)benzamide] and C[S@](=N)(=O)c1cc(NC(=O)c2cc(Cl)c(C(F)(F)F)cc2N2CCC(C(F)(F)F)CC2)ccn1 [Example 244, (S)-5-chloro-N-(2-(S-methylsulfonimidoyl)pyridin-4-yl)-4-(trifluoromethyl)-2-(4-(trifluoromethyl)piperidin-1-yl)benzamide] fall in the same range of pIC50: 7.00 to 7.30 for the first, 7.00 to 7.30 for the second.

Cc1c(C(F)(F)F)cnc(N2CCCC(F)(F)CC2)c1C(=O)N[C@H]1C[C@H](C(=O)O)C1 [Example 256, (trans)-3-(2-(4,4-difluoroazepan-1-yl)-4-methyl-5-(trifluoromethyl)nicotinamido)cyclobutane-1-carboxylic acid] and NC(=O)[C@H]1C[C@H](NC(=O)c2cc(Cl)c(C(F)(F)F)cc2N2CCCC(F)(F)CC2)C1 [Example 252, N-((trans)-3-carbamoylcyclobutyl)-5-chloro-2-(4,4-difluoroazepan-1-yl)-4-(trifluoromethyl)benzamide] fall in the same range of pIC50: 7.00 to 7.30 for the first, 7.00 to 7.30 for the second.

C[S@@](=N)(=O)c1cccc(NC(=O)c2cc(Cl)c(C(F)(F)F)cc2N2CCC(F)(F)CC2)c1 [Example 222, (R)-5-chloro-2-(4,4-difluoropiperidin-1-yl)-N-(3-(S-methylsulfonimidoyl)phenyl)-4-(trifluoromethyl)benzamide] and Cc1c(C(=O)Nc2ccnc([S@](C)(=N)=O)c2)c(N2CCCC(F)(F)CC2)nc(C2CC2)c1C(F)(F)F [Example 220, (R)-6-cyclopropyl-2-(4,4-difluoroazepan-1-yl)-4-methyl-N-(2-(S-methylsulfonimidoyl)pyridin-4-yl)-5-(trifluoromethyl)nicotinamide] fall in the same range of pIC50: 7.30 to 8.30 for the first, 7.30 to 8.30 for the second.
